In experiment [1] the test system is glutaraldehyde-fixed bovine pericardium (Glut-BP). Put plainly: Uptake of 14C-radiolabeled glyoxal by glut-BP. The following applies: 6-week pre-incubation at 37° C., 1× (7.2 μmol/mg glut-BP); 24 hours at 37° C. in 50 mM 14C-glyoxal. As to the method:
FIG. 9. Bar graph of the quantitation of uptake by glutaraldehyde-fixed bovine pericardium (Glut-BP) of radioactively-labeled glycation precursor after 24 hours of incubation at 37° C. in 50 mM ^14C-radiolabeled glyoxal. Glut-BP was either kept in phosphate-buffered saline solution (PBS) in storage at 4° C. or placed in pre-incubation at 37° C. in PBS, PBS+1×1,5-dihydro-2H-pyrrol-2-one at 7.2 μmol/mg glut-BP, or PBS+1×4-(1-methyl-1H-imidazol-4-yl)butanal at 7.2 μmol/mg glut-BP.
The above interpretations are supported by quantitation of uptake of glycation precursor by glut-BP using carbon-14-radiolabeled glyoxal, which indicates approximately 15% decreases in overall glycation versus by an extreme concentration (50 mM) of glyoxal in glut-BP pre-treated by 6-week incubation at 37° C. in PBS alone or 1×1,5 or 1×4IB, shown in FIG. 9.

Experiment [2] deals with glutaraldehyde-fixed bovine pericardium. The experiment can be described thus: Maillard browning of anti-glycation pre-treated tissue discs after in vitro glycation. The following applies: for tissue browning due to aggressive glycation: 6 weeks anti-glycation pretreatment at 37° C. (1,5 at pH 9.0), 1-week 50 mM glyoxal, methylglyoxal or glyoxal+5% human serum albumin. As to the method: A general method flow chart is described below. First, standard 0.6% glutaraldehyde fixation protocol (+/−any additional technology, e.g., anti-calcification). Second, wash protocol in phosphate-buffered saline to remove residual unreacted glutaraldehyde or other compounds. Third, incubation in subject compounds dissolved in, for example, phosphate-buffered saline at 37° C. for 6 weeks. Fourth, wash protocol in phosphate-buffered saline to remove residual unreacted anti-glycation precursor. Fifth, storage (usually in 0.2% glutaraldehyde.
(§1) Anti-glycation pretreatments have been performed for 1-, 2-, 4-, and 6-week-long durations for both 1,5-dihydro-2H-pyrrol-2-one as well as 4-(1-methyl-1H-imidazol-4-yl)butanal, and diversified 1-week glycation reactions have been applied to these samples. Namely, these conditions are 50 mM glyoxal, 50 mM methylglyoxal, and 50 mM glyoxal+5% human serum albumin. An antibody for N-carboxyethyl lysine, a major product of methylglyoxal glycation, was utilized for immunohistochemical staining.
“Maillard browning” is a classic and straightforward visual indicator of glycation. Formation of glycation products causes brown hues to develop in glycated tissues and proteinaceous materials. As a preliminary endpoint for initial anti-glycation efficacy studies, the inventors sought to evaluate prevention of browning due to glycation in glutaraldehyde-fixed bovine pericardium, the most common bioprosthetic heart valve biomaterial (and also widely used in other bioprosthetic implants), by pretreatment with the designed anti-glycation compounds. Short term (3-day) and long-term (6-week) protective incubation durations at physiological temperature (37° C.) were chosen as a starting point. Anti-glycation was followed by extensive washing of tissue in phosphate-buffered saline (PBS) to remove any unreacted anti-glycation precursor and extreme glycation conditions (1-week incubation in 50 mM doses of either methylglyoxal or glyoxal, two of the most reactive physiologically-relevant glycation precursors, or 50 mM glyoxal+5% human serum albumin, which exacerbates browning). Treatments and evaluation of browning have been performed with 1,5-dihydro-2H-pyrrol-2-one (“1,5,” compound 3) and 4-(1H-Imidazol-4-yl)butanal (“4IB”).

The subject of experiment [3] is N-carboxymethyl lysine (CML). The experiment can be described thus: Immunohistochemistry with anti-CML antibody after glyoxal glycation. Also on record: species or system bovine. The method, then:
As a preliminary specific chemical analysis, immunohistochemistry was performed using a standard anti-CML (AbCAM #ab27684 @ 1:5000 dilution) antibody to probe for the best-studied glycation product, N-carboxymethyl lysine, after control or anti-glycated glutaraldehyde-fixed bovine pericardium tissue discs were glycated under aggressive conditions known to efficiently generate CML (one week incubation at 37° C. in 50 mM glyoxal). Brown staining indicates presence of CML.

Experiment [4] deals with N-carboxyethyl lysine (CEL). The experiment can be described thus: Immunohistochemistry with antibody for N-carboxyethyl lysine after methylglyoxal glycation. The following applies: anti-glycated vs untreated tissue. Also on record: species or system bovine. As to the method: as §1

Consider `O=CCCCc1c[nH]cn1` [Compound 5, 4-(1H-Imidazol-4-yl)butanal], for which the “decrease in overall glycation (uptake of 14C-glyoxal)” value in experiment [1] is given as “approximately 15%”. The “tissue browning due to aggressive glycation” value in experiment [2] is “Protection from browning is less pronounced”.
In the case of `O=C1C=CCN1` [Compound 3, 1,5-dihydro-2H-pyrrol-2-one], in experiment [1], the “decrease in overall glycation (uptake of 14C-glyoxal)” value is reported as “approximately 15%”. Further, the “protection against optical browning” value in experiment [2] (50 mM glyoxal, 50 mM methylglyoxal, or 50 mM glyoxal+5% HSA for 7 days at 37° C.) is “dramatic protection”. Further, in experiment [2], the “tissue browning due to aggressive glycation” value is “dramatic diminishment of tissue browning”. In addition, the “incorporation of glycated (browned) albumin (tissue color, precursor alone vs precursor plus albumin)” value in experiment [2] (6 weeks pretreatment, 50 mM glyoxal+5% human serum albumin) is on record as “effectively blocks incorporation of glycated (browned) albumin”. In addition, in experiment [3] (anti-glycated vs untreated tissue), the “CML formation in response to glyoxal” value is on record as “still formed similarly as in untreated tissue”. Moreover, the CML formation result in experiment [3] (pretreatment for 6 weeks, one week incubation at 37° C. in 50 mM glyoxal) is given as “not mitigated”. Further, the “CEL formation in response to methylglyoxal” value in experiment [4] is listed as “still formed similarly as in untreated tissue”.
